# What was measured:
# [1] = tested on: Collagen Type II-Induced Arthritis; experiment: Collagen type II-induced arthritis (rat CIA model); type: in vivo, Lewis rats; conditions: oral, 1 mg/kg
# Method: To perform the testing, Lewis rats were induced to develop the disease as follows. Rats were anesthetized with isoflurane and were injected intradermally with a total of 0.5 mL CII/CFA emulsion. The emulsion was injected at 3 sites, one site at the base of the tail (0.1 mL), and the other two sites (0.2 mL/site) on the back of the rat near to the base of the tail. An identical booster injection was given i.d. at 7 days after the primary immunization avoiding previous injection sites.
# The positive control group was given TOFACITINIB orally on day 12 after sensitization. The severity of arthritis in four paws was scored 2 times per week starting on day 7 after sensitization. The criteria was as follows: score 0: No evidence of erythema and swelling; score 1: Erythema and mild swelling confined to the mid-foot (tarsals) or ankle joint; score 2: Erythema and mild swelling extending from the ankle to the mid-foot; score 3: Erythema and moderate swelling extending from the ankle to the metatarsal joints; score 4: Erythema and severe swelling encompass the ankle, foot, and digits. Joint swelling, measured by the volume of hind paws using Plethysmometer, was determined on Day 0, and then 2 times per week from Day 7 to Day 28. Destruction of the joint was determined by X-Ray examination on Day 28.
# [2] = tested on: heart rate and QT interval; experiment: Telemetry assay of cardiovascular function in conscious beagle dog; type: in vivo; conditions: within 24 hours after administration
# Method: To determine whether Compound 2 has an effect on heart rate and QT interval, the compound was evaluated in a telemetry assay in conscious beagle dog.
# An appropriate amount of CMC-Na was prepared as a 0.5% CMC-Na (w/v) solution with sterilized water for injection. The solution was prepared one day before administration.
# Solutions of Compound 2 (samples) with the concentration of 2, 6 and 20 mg/mL were prepared one day before administration as follows. An appropriate amount of Compound 2 was added into an appropriate amount of 0.5% CMC-Na solution. The obtained mixture was emulsified and homogenized on an emulsification isotropic machine. Theoretical concentrations of Compound 2 in the prepared sample solutions were 2, 6 and 20 mg/mL.
# A total of 8 animals and a Double Latin squared experimental design were used in this experiment. Administration cycles were separated by 3-5 days. One day before each administration cycle, the animals were weighted and fasted overnight. On the day of administration, telemetry system (Implantable physiological signal telemetry system 1, Data Science International Inc., USA) was turned on, test parameters were set, implants were activated and physiological indexes of the animals were recorded. […] Parameters would be analyzed using artificial set after the collection was completed. The data was, firstly, analyzed by PONEMAH Version 4.8 software automatically, and then checked point by point artificially for selected values. […] Time at which values were selected were recorded.
# Statistical software SPSS13.0 was used to process data in this experiment. […] Indexes of blood pressure, electrocardiogram, respiration and body temperature were expressed as “mean±standard error”, and then analyzed according to following procedure: firstly, homogeneity test was performed on the data by use of Levene Test, and if the data was uniform ([…]), single-factor variance analysis was performed; and if the result of variance analysis was significant (P≤0.05), Dunnett's multiple comparison was performed on difference between vehicle group and sample group. […]
# human S1P3 = human S1P3 (Homo sapiens, UniProt Q99500); experiment: Internalization effect experiment of S1P3 (CHO-S cells); type: cell-based
# Chain of human S1P3 (Q99500 whole entry): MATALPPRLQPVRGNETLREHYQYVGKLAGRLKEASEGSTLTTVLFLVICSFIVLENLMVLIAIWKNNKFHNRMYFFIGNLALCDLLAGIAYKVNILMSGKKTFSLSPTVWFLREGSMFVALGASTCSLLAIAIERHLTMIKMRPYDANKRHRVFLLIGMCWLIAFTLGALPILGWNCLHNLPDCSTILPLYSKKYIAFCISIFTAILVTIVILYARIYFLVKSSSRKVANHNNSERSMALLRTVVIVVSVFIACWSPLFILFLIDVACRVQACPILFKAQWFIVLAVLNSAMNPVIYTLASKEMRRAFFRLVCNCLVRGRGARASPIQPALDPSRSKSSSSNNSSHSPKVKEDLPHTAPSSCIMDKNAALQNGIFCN
# Method: CHO—S cells bearing human S1P1 with Myc tag were harvested and then adjusted to a density of one million cells per mL by Dulbecco's modified Eagle's medium (DMEM). […] After incubation, the mixture was centrifuged at 800 RPM for 5 minutes to obtain the cells. The cells were resuspended in FACS buffer (PBS containing 1% BSA), and Myc antibody labelled with fluorescein isothiocyanate (FITC) (from Californian Miltenyi Biotec GmbH, USA) was added in and incubated for 1 hour on ice. The cells were washed, resuspended in pre-cooled FACS buffer and analysed by FACS Calibur flow cytometry.
# CHO—S cells expressing human S1P3 were used to perform internalization detection test. Besides cells, experimental method was the same with the method of the internalized detection experiment of S1P1.
smiles,measurement,setting,value
"CC(C)Cc1ccc(-c2nc(-c3ccc(CN4CC(C(=O)O)C4)c(F)c3)no2)cc1 [Compound 2, 1-{2-fluoro-4-[5-(4-isobutylphenyl)-1,2,4-oxadiazol-3-yl]-benzyl}-3-azetidine carboxylic acid]",development of arthritis based on joint swelling,"[1]; Lewis rats, FIG. 5",effective in inhibiting the development of arthritis
same,development of arthritis based on destruction of joint structure,"[1]; X-Ray on Day 28, Lewis rats, FIG. 6",effective in inhibiting the development of arthritis
same,QT interval versus vehicle,[2],no significant difference
same,QTcF interval versus vehicle,[2],no significant difference
same,heart rate versus vehicle,[2],no significant difference
same,internalization activation effect on S1P3 subtype,"human S1P3; CHO-S cells expressing human S1P3, in words",no internalization activation effect on S1P3 subtype
same,EC50,"human S1P3; CHO-S cells expressing human S1P3, read-out: Receptor Internalization (EC50) S1P3",> 1000 nM
